The source of these data is patent publication US10618887B2 (Sunesis Pharmaceuticals, Inc., priority 2012, dated 2020).

pIC50: −log10 of the molar value. Some results are limits rather than exact numbers.

One data set concerns the target T1, BTK (Homo sapiens, UniProt Q06187).
T1 construct: purchased Upstate 14-552
In words: In vitro BTK kinase assay: BTK-POLYGAT-LS assay. To be noted: ATP 10 uM, polyGAT 100 nM, BTK 0.25 nM, 30 minutes; read-out: IC50 against BTK (polyGAT assay). Type of data set: biochemical. The procedure:
In vitro BTK kinase assay: BTK-POLYGAT-LS ASSAY. The purpose of the BTK in vitro assay was to determine compound potency against BTK through the measurement of IC50. Compound inhibition was measured after monitoring the amount of phosphorylation of a fluorescein-labeled polyGAT peptide (Invitrogen PV3611) in the presence of active BTK enzyme (Upstate 14-552), ATP, and inhibitor. The BTK kinase reaction was done in a black 96 well plate (costar 3694). For a typical assay, a 24 uL aliquot of an ATP/peptide master mix (final concentration; ATP 10 uM, polyGAT 100 nM) in kinase buffer (10 mM Tris-HCl pH 7.5, 10 mM MgCl2, 200 uM […], 5 mM DTT, 0.01% Triton X-100, and 0.2 mg/ml casein) was added to each well. Next, 1 uL of a 4-fold, 40× compound titration in 100% DMSO solvent was added, followed by adding 15 uL of BTK enzyme mix in 1× kinase buffer (with a final concentration of 0.25 nM). The assay was incubated for 30 minutes before being stopped with 28 uL of a 50 mM EDTA solution. Aliquots (5 uL) of the kinase reaction were transferred to a low volume white 384 well plate (Corning 3674), and 5 uL of a 2× detection buffer (Invitrogen PV3574, with 4 nM Tb-PY20 antibody, Invitrogen PV3552) was added. The plate was covered and incubated for 45 minutes at room temperature. Time resolved fluorescence (TRF) on Molecular Devices M5 (332 nm excitation; 488 nm emission; 518 nm fluorescein emission) was measured. IC50 values were calculated using a four parameter fit with 100% enzyme activity determined from the DMSO control and 0% activity from the EDTA control.

The next data set concerns the target T2, hERG potassium channel (Homo sapiens, UniProt Q12809).
T2 construct: host or cells: HEK293
As to the kind of experiment: FastPatch hERG inhibition assay (QPatch HT, HEK293 cells stably transfected with hERG cDNA). The data set is classed as cell-based. To be noted: human, HEK293 cells stably transfected with hERG cDNA; 10 uM, HEK293 cells, automated patch clamp. The text has this:
(§1) Protocol for FastPatch hERG Inhibition Assay:
(§2) The cardiac potassium channel, hERG, is responsible for a rapid delayed rectifier current (IKr) in human ventricle and inhibition of IKr is the most common cause of cardiac action potential prolongation by non-cardiac drugs (see, e.g., Weirich and Antoni, Basic Res. Cardiol., 93, Suppl. 1, 125-32, 1998; Yap and Camm, Clin. Exp. Allergy, 29, Suppl. 3, 174-81, 1999). Increased action potential duration has been cited as a factor in causing prolongation of the QT interval that has been associated with a dangerous ventricular arrhythmia, torsade de pointes (Brown and Rampe, Pharmaceutical News, 7, 15-20, 2000).
(§3) The in vitro effects of provided compounds was investigated on the hERG (human ether-à-go-go-related gene) potassium channel current (a surrogate for IKr, the rapidly activating, delayed rectifier cardiac potassium current) expressed in human embryonic kidney (HEK293) cells stably transfected with hERG cDNA. Cells were placed in HEPES-buffered physiological saline solution in a glass-lined 96-well plate and loaded with appropriate amounts of test and control solutions for a duration of a 3-minute exposure at each concentration. Test compound was diluted in 0.3% DMSO. An automated parallel patch clamp system, QPatch HT (Sophion Bioscience A/S, Denmark), was used to evaluate at various concentrations (e.g., 10 μM). The IC50 values was estimated based on the hERG inhibition data. The study was performed at ChanTest (14656 Neo Parkway, Cleveland, Ohio). The QPatch screen is further described by Janzen and Bernasconi (eds.), High Throughput Screening, Methods and Protocols, Second Edition, vol. 565, chapter 10, pg. 209-223, 2009.
In general terms: Block of hERG is tested as a sign of cardiac risk.

In data set [1] the target is T3, hERG (human ether-à-go-go-related gene) potassium channel (Homo sapiens, UniProt Q12809).
T3 construct: host or cells: HEK293
T3 sequence (Q12809 whole entry): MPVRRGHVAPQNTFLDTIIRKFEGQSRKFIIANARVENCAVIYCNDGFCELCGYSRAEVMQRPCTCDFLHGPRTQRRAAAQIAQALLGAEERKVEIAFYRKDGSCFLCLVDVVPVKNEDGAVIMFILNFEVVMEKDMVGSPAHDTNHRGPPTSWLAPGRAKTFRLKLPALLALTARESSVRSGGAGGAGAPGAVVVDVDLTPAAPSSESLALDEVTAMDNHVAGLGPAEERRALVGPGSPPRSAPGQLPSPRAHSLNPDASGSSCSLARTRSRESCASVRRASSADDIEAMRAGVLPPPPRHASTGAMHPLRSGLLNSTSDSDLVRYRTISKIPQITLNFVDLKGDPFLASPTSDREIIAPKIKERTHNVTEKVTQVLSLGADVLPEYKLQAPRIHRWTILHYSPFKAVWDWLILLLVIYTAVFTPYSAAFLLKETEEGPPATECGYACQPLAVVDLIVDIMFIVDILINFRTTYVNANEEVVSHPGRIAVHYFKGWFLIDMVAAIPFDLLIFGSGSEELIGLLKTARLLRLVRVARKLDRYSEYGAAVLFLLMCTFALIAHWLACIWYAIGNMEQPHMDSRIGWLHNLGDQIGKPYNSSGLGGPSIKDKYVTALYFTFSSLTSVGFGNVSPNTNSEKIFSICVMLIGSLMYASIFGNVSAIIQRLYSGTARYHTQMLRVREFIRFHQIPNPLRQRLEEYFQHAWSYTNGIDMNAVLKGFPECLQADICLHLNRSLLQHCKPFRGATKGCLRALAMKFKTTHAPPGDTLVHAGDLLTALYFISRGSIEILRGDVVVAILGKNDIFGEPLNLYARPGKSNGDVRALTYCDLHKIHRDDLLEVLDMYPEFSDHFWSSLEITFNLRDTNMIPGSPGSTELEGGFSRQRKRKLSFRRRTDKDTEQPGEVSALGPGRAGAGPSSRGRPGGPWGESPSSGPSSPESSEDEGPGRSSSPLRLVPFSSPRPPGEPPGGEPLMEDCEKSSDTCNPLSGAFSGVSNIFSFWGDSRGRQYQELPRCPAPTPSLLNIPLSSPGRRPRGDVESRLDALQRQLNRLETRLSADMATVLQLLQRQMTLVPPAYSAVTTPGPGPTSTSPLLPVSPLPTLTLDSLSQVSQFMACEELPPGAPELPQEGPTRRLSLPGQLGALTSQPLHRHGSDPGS
The data set is described as above. Type of data set: cell-based. To be noted: for pIC50: HEK293 cells, automated patch clamp, IC50 estimated from hERG inhibition data.
Source text: as §1, §2, §3

The target of another data set is T4, human PXR (Homo sapiens, UniProt O75469).
T4 construct: expressed in transfected cells; host or cells: DPX2 tumor cell line
T4 sequence (O75469 1-434): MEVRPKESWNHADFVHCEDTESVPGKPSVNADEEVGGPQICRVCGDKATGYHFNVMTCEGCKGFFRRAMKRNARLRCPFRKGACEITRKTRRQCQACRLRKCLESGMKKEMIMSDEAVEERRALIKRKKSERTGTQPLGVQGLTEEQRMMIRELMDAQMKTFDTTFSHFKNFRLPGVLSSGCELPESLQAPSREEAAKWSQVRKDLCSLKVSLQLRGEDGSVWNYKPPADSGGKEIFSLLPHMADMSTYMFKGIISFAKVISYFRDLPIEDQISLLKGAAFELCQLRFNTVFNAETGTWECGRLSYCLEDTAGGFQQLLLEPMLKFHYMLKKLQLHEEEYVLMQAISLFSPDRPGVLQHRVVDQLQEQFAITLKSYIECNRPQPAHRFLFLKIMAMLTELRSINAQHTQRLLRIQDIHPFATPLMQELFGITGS
In words: PXR nuclear receptor activation reporter gene assay in human DPX2 cells. To be noted: 24 hr treatment. The data set is classed as cell-based. An excerpt:
Study Protocol to Determine Activation of the PXR Nuclear Receptor in Human DPX2 Cells
Based on this pathway of CYP3A4 induction, cell-based PXR reporter gene assay is commonly used to screen new molecular entities (NMEs) in early drug discovery stage, for their potential to induce CYP3A4 (Luo G, et al.; Drug Metab Dispos. 2002 July; 30(7):795-804.) Studies were designed to evaluate the effect of new molecular entities (NMEs) on the activation of human PXR in DPX2 cells. Cell lines stably transfected with the PXR nuclear receptor and corresponding response elements were seeded into 96-well plates. Twenty-four hr after seeding, cells were treated with 6 distinct concentrations of NMEs in triplicate wells (see below), and cells then returned to the incubator for an additional 24 hr. At the end of this incubation period, the number of viable cells/well were determined using Promega's Cell Titer Fluor cytotoxicity assay. Following this assay, Promega's ONE-Glo was added to the same wells and reporter gene activity assessed.
The test system consisted of the stably transformed DPX2 tumor cell line plated on 96-well microtiter plates. An expression vector harboring the PXR nuclear receptor plus the appropriate enhancers and promoters linked to the luciferase reporter gene have been stably integrated into these tumor cell lines. Receptor activation was assessed by monitoring reporter gene activity, and by comparing the results to vehicle-treated cells. Positive controls consist of cells treated with 6 different concentrations (0.1, 0.5, 1, 5, 10, and 20 μM) of rifampicin. In this manner, compounds activating PXR can be easily and rapidly identified. Since stably-integrated cell lines were used, it is possible to observe from 3- to 70-fold receptor activation.
Data processed using MS-Excel was calculated as the mean (n=3) and % CV of the fold PXR activation relative to vehicle-treated cells at each of the 6 different doses. All activation data was normalized to the number of viable cells/well. Results were also expressed as a percentage of the response given by the appropriate positive control at a 10 μM dose. EC50 and Emax values were derived for test compounds that give receptor activation using nonlinear regression of typical log dose-response curves (Prism V5.0c, GraphPad Software, San Diego, Calif.).
d) New Molecular Entities (NMEs): Test Compounds were Tested at 0.05, 0.1, 0.5, 1, 2.5, and 10 μM
In general terms: Reporter assays use an easily measured gene product as a stand-in for the process of interest.

T2 sequence (Q12809 whole entry): as the sequence (Q12809 whole entry) above
T1 sequence (Q06187 whole entry): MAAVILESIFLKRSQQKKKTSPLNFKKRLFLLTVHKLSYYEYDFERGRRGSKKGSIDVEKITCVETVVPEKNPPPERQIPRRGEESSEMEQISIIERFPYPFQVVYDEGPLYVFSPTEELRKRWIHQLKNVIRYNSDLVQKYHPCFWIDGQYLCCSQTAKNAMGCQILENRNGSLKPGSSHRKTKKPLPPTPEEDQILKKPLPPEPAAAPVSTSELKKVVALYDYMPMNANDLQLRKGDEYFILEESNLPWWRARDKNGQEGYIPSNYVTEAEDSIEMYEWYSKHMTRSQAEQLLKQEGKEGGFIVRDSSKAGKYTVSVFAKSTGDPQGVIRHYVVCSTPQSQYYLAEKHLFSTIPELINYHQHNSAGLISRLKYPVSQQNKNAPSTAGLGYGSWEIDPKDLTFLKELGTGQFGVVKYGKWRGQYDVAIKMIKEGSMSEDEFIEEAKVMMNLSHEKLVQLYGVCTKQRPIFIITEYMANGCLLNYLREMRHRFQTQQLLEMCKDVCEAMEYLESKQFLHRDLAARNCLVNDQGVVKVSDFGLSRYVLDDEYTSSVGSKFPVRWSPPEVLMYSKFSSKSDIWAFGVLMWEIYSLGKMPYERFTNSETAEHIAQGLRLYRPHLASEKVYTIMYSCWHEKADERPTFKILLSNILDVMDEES

In general, pIC50 refers to the IC50 on a negative log10 scale, so that one unit is a factor of ten. The term inhibition denotes the change of the read-out against control, counted positive when it falls. A higher inhibition goes with a response far below the control. Regarding `Nc1ncnc(N2CCC[C@@H](N3CCC[C@@H](Nc4cc(Cl)cc(C(F)(F)F)c4)C3=O)C2)c1F` [I^C, reference compound], the pIC50 at BTK is 8.70; in data set [1] it was 5.93. Also, at hERG potassium channel, the inhibition at 3 min, 10 µM came to 87%. Moreover, the “PXR % induction (relative to 10 uM rifampin)” value on human PXR is recorded as 95%.
In the case of `CN1CCN(C(=O)[C@H]2CCN(c3ncnc(N)c3F)C[C@@H]2N2CCC[C@@H](Nc3cc(Cl)cc(C(F)(F)F)c3)C2=O)CC1` [Compound I-7], the negative-log IC50 (pIC50) on BTK is 8.92. The inhibition at 3 min, 10 µM at hERG potassium channel was determined as 65%.
Regarding `NC(=O)[C@H]1CCN(c2ncnc(N)c2F)C[C@@H]1N1CCC[C@@H](Nc2cc(F)cc(Cl)c2)C1=O` [Compound I-2], the pIC50 was 9.17 at BTK and 4.52 in data set [1]. Moreover, the “PXR % induction (relative to 10 uM rifampin)” value at human PXR came to 42%.
As for `NC(=O)[C@H]1CCN(c2ncnc(N)c2F)C[C@@H]1N1CCC[C@@H](Nc2cc(Cl)cc(C(F)(F)F)c2)C1=O` [Compound I-1, (3R,3′R,4′S)-1′-(6-amino-5-fluoropyrimidin-4-yl)-3-((3-chloro-5-(trifluoromethyl)phenyl)amino)-2-oxo-[1,3′-bipiperidine]-4′-carboxamide], the pIC50 at BTK is 9.14; in data set [1], 4.81. For the same compound, at human PXR, the “PXR % induction (relative to 10 uM rifampin)” value turned out to be 62%.
On to `NC(=O)[C@H]1CCN(c2ncnc(N)c2F)C[C@@H]1N1CCC[C@@H](Nc2cc(F)cc(C(F)(F)F)c2)C1=O` [Compound I-5, (3R,3′R,4′S)-1′-(6-amino-5-fluoropyrimidin-4-yl)-3-((3-fluoro-5-(trifluoromethyl)phenyl)amino)-2-oxo-[1,3′-bipiperidine]-4′-carboxamide], for which, at BTK, the pIC50 was 8.80. For the same compound, the “observable activity in the hERG assay at 10 uM” value in data set [1] (10 uM, no IC50 available) is “no observable activity”. Moreover, the “PXR % induction (relative to 10 uM rifampin)” value at human PXR is reported as 90%.
With `NC(=O)[C@H]1CCN(c2ncnc(N)c2F)C[C@@H]1N1CCC[C@@H](Nc2cc(Cl)cc(OC(F)(F)F)c2)C1=O` [Compound I-6], the negative-log IC50 (pIC50) at BTK was over 9.00. In addition, the inhibition at 3 min, 10 µM on hERG potassium channel is under 20%.
As for `CNC(=O)[C@H]1CCN(c2ncnc(N)c2F)C[C@@H]1N1CCC[C@@H](Nc2cc(Cl)cc(C(F)(F)F)c2)C1=O` [Compound I-4], the negative logarithm of the IC50 (pIC50) was 9.20 on BTK and 4.86 in data set [1]. Moreover, on human PXR, the “PXR % induction (relative to 10 uM rifampin)” value is on record as 67%.
The matching figures for `CN(C)C(=O)[C@H]1CCN(c2ncnc(N)c2F)C[C@@H]1N1CCC[C@@H](Nc2cc(Cl)cc(C(F)(F)F)c2)C1=O` [Compound I-3, (3R,3′R,4′S)-1′-(6-amino-5-fluoropyrimidin-4-yl)-3-((3-chloro-5-(trifluoromethyl)phenyl)amino)-N,N-dimethyl-2-oxo-[1,3′-bipiperidine]-4′-carboxamide]: 8.68, 4.84 and 47%.
